Reference: patent publication US8486996B2, “Aroylfuranes and aroylthiophenes” (Basilea Pharmaceutica AG, priority 2006, dated 2013)
pEC50, pIC50: −log10 of the molar value. Like-named read-outs stand apart in the source and are kept apart here.

Columns and labels:
Type in all cases: cell-based
[1] = Hoechst 33342 nuclear staining (48 h read-out)
Outline: (§1)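 Adherent cells pre-spread 24 h before dosing, suspension cells dosed at seeding; compounds at 0.001 μM-10 μM final, 48 h at culture conditions. Hoechst 33342 (2-5 μg/ml) added for 30 min, then fluorescence microscopy scoring of apoptotic nuclear fraction and apoptosis-specific morphology, reported as scores A-D.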

tumor cells [2] = experiment: Hoechst 33342 nuclear staining (48 h read-out)
Outline: as §1

[3] = MTS proliferation assay (72 h read-out); conditions: MRC5 cells
Outline: (§2)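 Tumour cells (1.5×10^3–10^4 per well) were seeded 24 h before compound addition, then exposed to 0.001–10 μM final compound for 72 h under culture conditions. MTS reagent was added for a further 3 h, absorbance was read at 492 nm, and results were binned into scores A–D.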

tumor cells [4] = experiment: MTS proliferation assay (72 h read-out)
Outline: as §2

[5] = Mitochondrial membrane potential, JC-1 (read-out 48 h); conditions: PBL, JC-1, 48 h
Outline: (§3)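 Tumor cells were treated with test compounds (adherent cells after 24 h of attachment, suspension cells immediately), medium holding up to 5% DMSO. After 48 h, JC-1 (2-5 μg/ml in added medium) was applied for 30 min. Fluorescence microscopy (FITC/TRITC filters) scored the fraction of cells with dissipated mitochondrial membrane potential as categories A-D.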

tumor cells [6] = experiment: as above; conditions: JC-1, 48 h
Outline: as §3

[7] = MRC5 cells, read-out: Hoechst 33342 nuclear staining EC50, MRC5
[8] = PBL, read-out: Hoechst 33342 nuclear staining EC50, PBL
[9] = HeLa cells, read-out: Hoechst 33342 nuclear staining EC50, HeLa
[10] = Jily cells, read-out: Hoechst 33342 nuclear staining EC50, Jily
[11] = Jurkat cells, read-out: Hoechst 33342 nuclear staining EC50, Jurkat
[12] = HT1080 cells, read-out: MTS proliferation assay IC50, HT1080
[13] = HeLa cells, read-out: MTS proliferation assay IC50, HeLa
[14] = Jily cells, read-out: MTS proliferation assay IC50, Jily
[15] = Jurkat cells, read-out: MTS proliferation assay IC50, Jurkat
[16] = HeLa cells, read-out: Mitochondrial membrane potential (read-out 48 h) HeLa
[17] = Jily cells, read-out: Mitochondrial membrane potential (read-out 48 h) Jily
[18] = Jurkat cells, read-out: Mitochondrial membrane potential (read-out 48 h) Jurkat
[19] = MCF7 cells, read-out: Mitochondrial membrane potential (read-out 48 h) MCF7
[20] = Homo sapiens, MRC5 cells, read-out: Hoechst 33342 nuclear staining EC50, MRC5
[21] = Homo sapiens, HeLa cells, read-out: Hoechst 33342 nuclear staining EC50, HeLa
[22] = Homo sapiens, Jurkat cells, read-out: Hoechst 33342 nuclear staining EC50, Jurkat
[23] = Homo sapiens, HT-1080, HT1080 cells, read-out: MTS proliferation assay IC50, HT1080
[24] = Homo sapiens, HeLa cells, read-out: MTS proliferation assay IC50, HeLa
[25] = Homo sapiens, Jurkat cells, read-out: MTS proliferation assay IC50, Jurkat
[26] = Homo sapiens, HeLa cells, read-out: Mitochondrial membrane potential (read-out 48 h) HeLa
[27] = Homo sapiens, Jurkat cells, read-out: Mitochondrial membrane potential (read-out 48 h) Jurkat
[28] = Homo sapiens, MCF7 cells, read-out: Mitochondrial membrane potential (read-out 48 h) MCF7

Row | SMILES | pEC50 [1, 7] | pEC50 [1, 8] | pEC50 (tumor cells [2]; [9]) | pEC50 (tumor cells [2]; [10]) | pEC50 (tumor cells [2]; [11]) | pIC50 [3] | pIC50 (tumor cells [4]; [12]) | pIC50 (tumor cells [4]; [13]) | pIC50 (tumor cells [4]; [14]) | pIC50 (tumor cells [4]; [15]) | pEC50 [5] | pEC50 (tumor cells [6]; [16]) | pEC50 (tumor cells [6]; [17]) | pEC50 (tumor cells [6]; [18]) | pEC50 (tumor cells [6]; [19]) | further results
1 | CCOc1ccccc1C(=O)c1oc2ccc(OC)cc2c1N [Example 47] | 7.00 to 8.00 | < 6.00 | 7.00 to 8.00 | > 8.00 | > 8.00 | 7.00 to 8.00 | > 8.00 | 7.00 to 8.00 | > 8.00 | > 8.00 | < 6.00 | 7.00 to 8.00 | 7.00 to 8.00 | 7.00 to 8.00 | < 6.00 | 
2 | CN1CCN(c2ccc(F)cc2C(=O)c2oc3ccc(Cl)cc3c2N)CC1 [Example 102] | < 6.00 | < 6.00 | < 6.00 | < 6.00 | < 6.00 | < 6.00 | < 6.00 | < 6.00 | < 6.00 | 6.00 to 7.00 | < 6.00 | < 6.00 | < 6.00 | < 6.00 | < 6.00 | 
3 | Nc1c(C(=O)c2cc(F)ccc2N2CC=CCC2)oc2ccc(Cl)cc12 [Example 103] | 7.00 to 8.00 | < 6.00 | 7.00 to 8.00 | 7.00 to 8.00 | 7.00 to 8.00 | 7.00 to 8.00 | 7.00 to 8.00 | 7.00 to 8.00 | 7.00 to 8.00 | 7.00 to 8.00 | < 6.00 | 7.00 to 8.00 | 7.00 to 8.00 | 7.00 to 8.00 | 7.00 to 8.00 | 
4 | CCOc1ccccc1C(=O)c1oc2ccc(I)cc2c1N [Example 43] | < 6.00 | < 6.00 | < 6.00 | < 6.00 | < 6.00 | < 6.00 | < 6.00 | < 6.00 | < 6.00 | < 6.00 | < 6.00 | < 6.00 | < 6.00 | < 6.00 | < 6.00 | 
5 | CCOc1ccc(F)cc1C(=O)c1sc2ncccc2c1N [Example 113, 3-Amino-2-(2′-ethoxy-5-fluorobenzoyl)-thieno[2,3-b]pyridine] |  | < 6.00 |  | 6.00 to 7.00 |  |  |  |  | 6.00 to 7.00 |  | < 6.00 |  | 6.00 to 7.00 |  |  | pEC50 [1, 20]: < 6.00; pEC50 (tumor cells [2]; [21]): 6.00 to 7.00; pEC50 (tumor cells [2]; [22]): 6.00 to 7.00; pIC50 ([3]; Homo sapiens): < 6.00; pIC50 (tumor cells [4]; [23]): < 6.00; pIC50 (tumor cells [4]; [24]): 6.00 to 7.00; pIC50 (tumor cells [4]; [25]): 6.00 to 7.00; pEC50 (tumor cells [6]; [26]): < 6.00; pEC50 (tumor cells [6]; [27]): 6.00 to 7.00; pEC50 (tumor cells [6]; [28]): < 6.00
6 | CCOc1ccccc1C(=O)c1oc2ccc(Cl)cc2c1O [Example 32, 5-Chloro-2-(2-ethoxybenzoyl)-3-hydroxybenzofuran] |  | < 6.00 |  | < 6.00 |  |  |  |  | < 6.00 |  | < 6.00 |  | < 6.00 |  |  | pEC50 [1, 20]: < 6.00; pEC50 (tumor cells [2]; [21]): < 6.00; pEC50 (tumor cells [2]; [22]): < 6.00; pIC50 ([3]; Homo sapiens): < 6.00; pIC50 (tumor cells [4]; [23]): < 6.00; pIC50 (tumor cells [4]; [24]): < 6.00; pIC50 (tumor cells [4]; [25]): < 6.00; pEC50 (tumor cells [6]; [26]): < 6.00; pEC50 (tumor cells [6]; [27]): < 6.00; pEC50 (tumor cells [6]; [28]): < 6.00
7 | Nc1c(C(=O)c2ccccc2OCCN2CCOCC2)oc2ccc(Cl)cc12 [Example 10] | < 6.00 | < 6.00 | < 6.00 | < 6.00 | < 6.00 | < 6.00 | < 6.00 | < 6.00 | < 6.00 | < 6.00 | < 6.00 | < 6.00 | < 6.00 | < 6.00 | < 6.00 | 
8 | COc1ccc2oc(C(=O)c3cc(F)ccc3N3CCCC(C)C3)cc2c1 (centres unmarked) [Example 99] | < 6.00 | < 6.00 | 6.00 to 7.00 | 6.00 to 7.00 | 6.00 to 7.00 | 7.00 to 8.00 | 6.00 to 7.00 | 6.00 to 7.00 | 7.00 to 8.00 | 7.00 to 8.00 | < 6.00 | 6.00 to 7.00 | 6.00 to 7.00 | 6.00 to 7.00 | 6.00 to 7.00 | 
9 | COc1ccc2oc(C(=O)c3ccccc3OCC(F)(F)F)c(N)c2c1 [Example 60] | < 6.00 | < 6.00 | 6.00 to 7.00 | 7.00 to 8.00 | 7.00 to 8.00 | 6.00 to 7.00 | 7.00 to 8.00 | 6.00 to 7.00 | 7.00 to 8.00 | 7.00 to 8.00 | < 6.00 | 6.00 to 7.00 | 7.00 to 8.00 | 7.00 to 8.00 | < 6.00 | 
10 | COc1ccc2oc(C(=O)c3cc(F)ccc3N3CCN(C)CC3)cc2c1 [Example 94] | < 6.00 | < 6.00 | < 6.00 | < 6.00 | 6.00 to 7.00 | 6.00 to 7.00 | 6.00 to 7.00 | 6.00 to 7.00 | 6.00 to 7.00 | 6.00 to 7.00 | < 6.00 | < 6.00 | 6.00 to 7.00 | 6.00 to 7.00 | < 6.00 | 
11 | CN1CCN(c2ncccc2C(=O)c2oc3ccc(Cl)cc3c2N)CC1 [Example 85] | < 6.00 | < 6.00 | < 6.00 | 6.00 to 7.00 | 6.00 to 7.00 | < 6.00 | < 6.00 | < 6.00 | 6.00 to 7.00 | 6.00 to 7.00 | < 6.00 | < 6.00 | 6.00 to 7.00 | 6.00 to 7.00 | < 6.00 | 
12 | CCOc1ccc(S(=O)(=O)N(C)C)cc1C(=O)c1oc2ccc(Cl)cc2c1N [Example 46] | < 6.00 | < 6.00 | < 6.00 | < 6.00 | < 6.00 | < 6.00 | < 6.00 | < 6.00 | < 6.00 | < 6.00 | < 6.00 | < 6.00 | < 6.00 | < 6.00 | < 6.00 | 
13 | CCOc1ccccc1C(=O)c1oc2c(C)cccc2c1N [Example 5, 3-Amino-7-methyl-2-(2-ethoxybenzoyl)-benzofuran] |  | < 6.00 |  | < 6.00 |  |  |  |  | 6.00 to 7.00 |  | < 6.00 |  | < 6.00 |  |  | pEC50 [1, 20]: < 6.00; pEC50 (tumor cells [2]; [21]): < 6.00; pEC50 (tumor cells [2]; [22]): 6.00 to 7.00; pIC50 ([3]; Homo sapiens): < 6.00; pIC50 (tumor cells [4]; [23]): < 6.00; pIC50 (tumor cells [4]; [24]): < 6.00; pIC50 (tumor cells [4]; [25]): 6.00 to 7.00; pEC50 (tumor cells [6]; [26]): < 6.00; pEC50 (tumor cells [6]; [27]): 6.00 to 7.00; pEC50 (tumor cells [6]; [28]): < 6.00
14 | CCOc1ccc(OCC)c(C(=O)c2oc3ccc(Cl)cc3c2N)c1 [Example 19] |  | < 6.00 |  | 6.00 to 7.00 |  |  |  |  | 6.00 to 7.00 |  | < 6.00 |  | 6.00 to 7.00 |  |  | pEC50 [1, 20]: 6.00 to 7.00; pEC50 (tumor cells [2]; [21]): 6.00 to 7.00; pEC50 (tumor cells [2]; [22]): 6.00 to 7.00; pIC50 ([3]; Homo sapiens): 6.00 to 7.00; pIC50 (tumor cells [4]; [23]): 6.00 to 7.00; pIC50 (tumor cells [4]; [24]): 6.00 to 7.00; pEC50 (tumor cells [6]; [26]): 6.00 to 7.00; pEC50 (tumor cells [6]; [27]): 6.00 to 7.00; pEC50 (tumor cells [6]; [28]): 6.00 to 7.00
15 | CCOc1ccc(F)cc1C(=O)c1oc2ccc(C)cc2c1N [Example 62] | < 6.00 | < 6.00 | 7.00 to 8.00 | > 8.00 | > 8.00 | > 8.00 | > 8.00 | 7.00 to 8.00 | > 8.00 | > 8.00 | < 6.00 | 7.00 to 8.00 | > 8.00 | > 8.00 | < 6.00 | 
